Experimental data from patent US11702442B2, “Cyclic dinucleotide compounds as sting agonists” (The Regents of the University of California, priority 2019, dated 2023).
Entries after “also recorded” stand apart in the source; their conditions may differ.

Tests used:
STING pathway = assay: Type-I IFN production in THP-1 cells detected with HEK-Blue IFN α/β reporter cells; assay type: cell-based, human; settings: 5 μM CDN, 4 h incubation, compared with c-di-GMP
Experimental: THP-1 cells were seeded at a density of 100000 cells/well in a 96-well cell culture plate and differentiated with 25 nM of PMA for approximately 20 h prior to treatment with CDNs. Cells were transfected with 5 μM of CDNs in a permeabilization buffer containing 5 μg/mL of digitonin, then washed and incubated in RPMI medium with 2% FBS at 37° C. for 4 h. 50 μL of cell culture supernatant per well was transferred to 150 μL of HEK-Blue IFN α/β reporter cells seeded at 50000 cells/well in a 96-well cell culture plate and incubated at 37° C. overnight. The reporter cells were spun down the next day, and 50 μL of cell culture supernatant per well was transferred to a 96-well plate and added with 150 μL of QUANTI-Blue™ SEAP detection medium (InvivoGen). The samples were then incubated at 37° C. for 1 h 20 min before absorption was measured at 640 nm. The absorption signal of each sample was normalized to untreated samples. Two independent assays were performed in duplicate or triplicate. Error bars indicate SD.
To preliminarily determine whether the synthetic c-di-GMP analogues could activate the IFN response in eukaryotic cells, THP-1 cells were treated with 5 μM of c-di-GMP, c-GthGMP and c-di-thGMP.
Detecting type-I IFN production with reporter cells. […] The samples were then incubated at 37° C. for 80 min before absorption was measured at 640 nm with an EnSpire plate reader (PerkinElmer). […]

rocR = target: T1, rocR (Pseudomonas aeruginosa, UniProt Q9HX69); assay: rocR-mediated CDN hydrolysis monitored by HPLC; assay type: biochemical, P. aeruginosa; settings: for k2 / k3 / k1 / k2 (cleavage reaction) / time to complete cleavage by rocR: 100 nM rocR, 37° C.; for k2 / k3: Table 3; for k1: enzyme/substrate association; for order of gradually reduced rocR hydrolysis rate: FIG. 10F
T1 construct: made in house; host or cells: Escherichia coli BL21(DE3)
Text: [1a,27] rocR is a PDE that contains an EAL domain and specifically recognizes and cleaves c-di-GMP into the linear dinucleotide pGpG. […] [28a,29]
RocR is reported to follow Michaelis-Menten kinetics. [27c,28a] Scheme 2a was therefore used to analyze the reaction kinetics, where k1 and k−1 describe the enzyme/substrate association and dissociation, respectively, while k2 reflects the cleavage reaction. Equations (10)-(13) were thus used to extract the rate constants. When “asymmetrical” mixed c-di-GMP analogues are treated with rocR, the enzyme may, in principle, recognize and cleave either phosphodiester bonds, producing pN1pN2 and pN2pN1. Assuming the two products result from different binding orientation of the heterodimeric CDNs, Scheme 2b is therefore introduced to model the cleavage reactions, where k1, k−1 and k2 reflect the association/dissociation and cleavage of the heterodimeric CDN in one orientation, respectively, and k3, k−3 and k4 reflect the other. Equations (14)-(19) were used to extract the rate constants.
Equations(10)-(19) d[S]/dt=−k1[E][S]+k−1[ES] (10) d[E]/dt=−k1[E][S]+k−1[ES]+k2[ES] (11) d[P]/dt=k2[ES] (12) d[ES]/dt=k1[E][S]−k−1[ES]−k2[ES] (13) d[S]/dt=−k1[E][S]+k−1[ES1]−k3[E][S]+k−3[ES2] (14) d[P1]/dt=k2[ES1] (15) d[P2]/dt=k4[ES2] (16) d[E]/dt=−(k1+k3)[E][S]+(k−1+k2)[ES1]+[…][ES2]] (17) d[ES1]/dt=k1[E][S]−k−1[ES1]−k2[ES1] (18) d[ES2]/dt=k3[E][S]−k−3[ES2]−k4[ES2] (19)
CDN hydrolysis with rocR. […] of CDN was incubated with 100 nM of rocR in a buffer containing 100 mM Tris-HCI, pH 8, 20 mM KCI, 25 mM MgCl2 at 37° C. Aliquots of the reaction mixture were taken out at designated time points and quenched with 100 mM CaCl2. All aliquots were filtered before subjected to reverse-phase HPLC analysis. The reaction mixture was separated by Sepax Bio C-18 column (250×10 mm, 5 µm particle size) with a gradient of 0.1-15% of 10 mM NH4OAc, pH7 in Me0H in 12 minutes at 25° C. or 50° C. (only for reactions of c-GtzGMP and c-di-tzGMP) on an Agilent 1200 series HPLC system (Agilent Technologies).
Data Analysis and curve fitting. […] The relative concentrations were plotted against time.

DncV = DncV (Vibrio cholerae serotype O1, UniProt Q9KVG7); settings: pseudo-second order simulation, FL Model 2
Sequence of DncV (Q9KVG7 whole entry): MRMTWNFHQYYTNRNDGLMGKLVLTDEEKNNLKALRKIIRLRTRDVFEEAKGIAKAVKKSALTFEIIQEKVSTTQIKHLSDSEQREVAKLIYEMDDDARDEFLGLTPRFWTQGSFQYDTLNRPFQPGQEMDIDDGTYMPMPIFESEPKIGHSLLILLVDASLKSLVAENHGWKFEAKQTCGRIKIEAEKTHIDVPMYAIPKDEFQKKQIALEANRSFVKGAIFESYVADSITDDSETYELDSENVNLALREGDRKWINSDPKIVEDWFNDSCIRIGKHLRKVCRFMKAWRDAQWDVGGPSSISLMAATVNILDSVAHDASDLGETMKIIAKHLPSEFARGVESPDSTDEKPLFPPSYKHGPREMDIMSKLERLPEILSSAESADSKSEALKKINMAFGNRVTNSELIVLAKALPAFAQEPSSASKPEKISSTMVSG
Experimental: The bacterial enzyme DncV was thus incubated with either GTP, ^thGTP, ^tzGTP or mixtures thereof under the same conditions as the HPLC-monitored reactions. Aliquots were treated with calf intestinal alkaline phosphatase (CIAP) at designated times, and emission spectra were taken after appropriate dilution.
Unlike integrated chromatographic analyses, which can separately account for all individual species present, the observed fluorescence signal reflects the sum of all emissive species. To facilitate quantitative analyses of fluorescence data, a conversion factor (a) was introduced to the simulation of the fluorescence-monitored reaction kinetics. This factor bridges the integrated fluorescent spectrum and the concentration of a given chromophore at a given set of conditions and can be calculated from the integrated emission spectrum (FLint) of a given chromophore with known concentration ([C]) using Equation (5). […] To compare the fluorescence- and HPLC-monitored reaction kinetics, Equation (6) was used to correlate the recorded fluorescence spectrum with the concentrations of different species in the reaction mixture. As a first attempt, the k values extracted from the HPLC analysis were used to fit the fluorescence data (referred to as FL Model 1). […]

T1 sequence (Q9HX69 whole entry): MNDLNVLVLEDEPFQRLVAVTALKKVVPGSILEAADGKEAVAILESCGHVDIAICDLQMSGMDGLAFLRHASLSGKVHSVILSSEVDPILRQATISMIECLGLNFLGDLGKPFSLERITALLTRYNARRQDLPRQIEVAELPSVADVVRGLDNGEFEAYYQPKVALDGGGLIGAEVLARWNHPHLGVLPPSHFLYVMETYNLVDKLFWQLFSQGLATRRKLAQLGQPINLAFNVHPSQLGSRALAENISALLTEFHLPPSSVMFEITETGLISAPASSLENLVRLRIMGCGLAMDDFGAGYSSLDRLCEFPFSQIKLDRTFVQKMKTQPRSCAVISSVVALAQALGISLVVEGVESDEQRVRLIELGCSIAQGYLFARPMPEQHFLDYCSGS

SMILES	type-I IFN induction (STING pathway)	k2 (rocR) [s⁻¹]	k3 (rocR) [s⁻¹]	k1 (rocR) [M⁻¹ s⁻¹]	order of gradually reduced rocR hydrolysis rate (rocR)	products of rocR-mediated cleavage (rocR; mixed CDNs, HPLC)	k2 (cleavage reaction) (rocR) [s⁻¹]	time to complete cleavage by rocR (rocR) [min]	kapp (apparent kinetics rate constant) (DncV) [M⁻¹ s⁻¹]	cleavage by rocR (rocR; after 40 min of incubation with rocR)
Nc1nc2c([C@@H]3O[C@@H]4COP(=O)(O)O[C@H]5[C@@H](O)[C@H](n6cnc7c(=O)[nH]c(N)nc76)O[C@@H]5COP(=O)(O)O[C@H]4[C@H]3O)scc2c(=O)[nH]1 [c-G^thGMP]	comparable efficiency to cdi-GMP; also recorded: comparable potency to c-di-GMP	0.033 ± 0.001	5 ± 0.57	21000 ± 1000	c-di-GMP, c-di-^tzGMP, c-G^tzGMP, c-G^thGMP and lastly c-di-^thGMP	a single product				
Nc1nc2c([C@@H]3O[C@@H]4COP(=O)(O)O[C@H]5[C@@H](O)[C@H](c6snc7c(=O)[nH]c(N)nc67)O[C@@H]5COP(=O)(O)O[C@H]4[C@H]3O)snc2c(=O)[nH]1 [c-di-^tzGMP]		0.099 ± 0.07	0.83 ± 0.55	43000 ± 20000	c-di-GMP, c-di-^tzGMP, c-G^tzGMP, c-G^thGMP and lastly c-di-^thGMP		0.83 ± 0.55	≤ 20	1.57 ± 0.15	
Nc1nc2c([C@@H]3O[C@@H]4COP(=O)(O)O[C@H]5[C@@H](O)[C@H](c6scc7c(=O)[nH]c(N)nc67)O[C@@H]5COP(=O)(O)O[C@H]4[C@H]3O)scc2c(=O)[nH]1 [c-di-^thGMP]	no activity				c-di-GMP, c-di-^tzGMP, c-G^tzGMP, c-G^thGMP and lastly c-di-^thGMP				0.53 ± 0.05	No cleaved c-di-^thGMP was observed; also recorded: did not produce observable amounts of cleaved c-di-^thGMP products
Nc1nc2c(ncn2[C@@H]2O[C@@H]3COP(=O)(O)O[C@H]4[C@@H](O)[C@H](n5cnc6c(=O)[nH]c(N)nc65)O[C@@H]4COP(=O)(O)O[C@H]3[C@H]2O)c(=O)[nH]1 [c-di-GMP, reference compound]		1.15 ± 0.21	0.76 ± 0.03	3.96e+06 ± 70000	c-di-GMP, c-di-^tzGMP, c-G^tzGMP, c-G^thGMP and lastly c-di-^thGMP		0.76 ± 0.03	~3		
